These results are taken from patent US20130252951A1, “7-HYDROXY-PYRAZOLO[1,5-A] PYRIMIDINE COMPOUNDS AND THEIR USE AS CCR2 RECEPTOR ANTAGONISTS” (Proximagen Limited, priority 2010, published 2013).

pKi: −log10 of the molar value. A value given as a limit tells only on which side of the number the result lay.

Chain of human CCR2 (P41597 whole entry): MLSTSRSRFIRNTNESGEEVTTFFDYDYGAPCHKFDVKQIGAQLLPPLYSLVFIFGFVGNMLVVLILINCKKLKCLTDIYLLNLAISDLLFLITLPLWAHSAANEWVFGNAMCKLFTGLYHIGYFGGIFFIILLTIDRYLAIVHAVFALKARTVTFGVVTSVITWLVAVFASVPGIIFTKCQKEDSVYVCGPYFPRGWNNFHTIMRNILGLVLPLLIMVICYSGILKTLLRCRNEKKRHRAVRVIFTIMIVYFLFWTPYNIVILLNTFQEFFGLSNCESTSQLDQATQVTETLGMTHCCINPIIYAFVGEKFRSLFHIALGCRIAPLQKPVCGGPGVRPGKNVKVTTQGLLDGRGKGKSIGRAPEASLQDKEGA

The target in this assay is human CCR2 (Homo sapiens, UniProt P41597). In words: CCR2 functional calcium assay (FLIPR calcium flux, hMCP-1 challenge). It counts as cell-based. The settings on record: HEK293 EBNA cells transfected with human CCR2, hMCP-1 challenge; read-out: Functional CCR2 fKi. On the set-up: expressed in transfected cells; host or cells: HEK293 EBNA cells. The text has this:
The CCR2 receptor couples through the Gi/Gq signaling pathway and results in activation of calcium mobilization. The functional activity of test compounds was routinely tested by measuring the ability of compounds to antagonize CCR2 activity in a dose dependent manner, in HEK293 EBNA cells transfected with the human CCR2 receptor (hMCP-1 challenge), using a calcium flux Fluorescent Imaging Plate Reader FLIPR assay. Non-transfected HEK293 EBNA cells were used as control of non-specific response.
Briefly, test compounds were dissolved in dimethyl sulfoxide (DMSO) to a concentration of 10 mM and stored in matrix screenmate racks. The required amount of compound was transferred to 96-well compound plates on the day of assay and diluted in assay buffer to the required final concentration; dose-response measurements were assayed by making 1:3 serial dilutions to produce 10 point curves. The compounds were then transferred to 384-well assay plates ready for use. Top concentrations were adjusted depending on the potency of the compounds with a typical concentration range of 30 μM to 0.5 nM being used. The assay buffer used was HBSS buffer supplemented with 20 mM HEPES and 0.1% BSA, pH7.4. The loading/wash buffers were the same as the assay buffer.
Cells were suspended in culture medium at a density of 10000 cells/50 μl (the cell culture media composition was DMEM high glucose supplemented with 10% dialyzed FBS, 250 μg/ml Geneticin, and 400 μg/ml Hygromycin B), transferred to 384-well black/clear Costar plates (Costar #3712) (50 μl/well) and incubated at 37° C., in a 5% CO2/95% air humidified incubator for 16 h. The cells were washed with assay buffer at 37° C. using the Biotek ELx 405, washing 3 times, leaving 20 μl buffer in the well. 20 μl Fluo-4 (Fluo-4 stock solution (1 mM) was prepared by dissolving one vial of Fluo-4 (50 μg) in 45 μl of pluronic acid (240 mg/ml in DMSO). This stock solution of Fluo-4 was then diluted 250 times with loading buffer to give a Fluo-4 concentration of 4 μM. The dye solution (used within 2 h and kept away from light) was added to each well using a repeating multichannel pipette; the cells were then incubated at 37° C. for 60 min. Following the incubation, cells were washed in assay buffer at 37° C. using the Biotek ELx 405, washing 3 times, leaving 40 μl in each well and incubated for 10 min at 37° C. before use. A combined agonist/antagonist protocol was used. Compound (antagonist) was added to the cell plate using the FLIPR. Basal fluorescence was recorded every second for 10 seconds prior to compound addition (10 μl) and fluorescence recorded every second for 1 minute then every 6 seconds for a further 1 minute. Agonist (MCP-1) was then added using the FLIPR and fluorescence recorded as described above.
The positive control (agonist) was human recombinant MCP-1 which was stored as a stock concentration of 10 μM in distilled water and stored at −20° C. (maximal response: 30 nM; EC50 dose: 3-5 nM). The reference compound (antagonist) was RS102895 which was used as a 10 mM DMSO solution and stored at −20° C.
FLIPR responses were measured as peak minus basal fluorescence intensity and were expressed as a percentage of EC50 MCP-1 challenge. Curve-fitting and parameter estimation were carried out using GraphPad Prism 4.0 (GraphPad Software Inc., San Diego, Calif.).
Turning to `Cc1nc2c(C(=O)NC[C@@H]3CCCO3)cnn2c(O)c1Cc1ccc(Cl)cc1` (stereo in doubt) [Example 110, 6-[(4-Chlorophenyl)methyl]-7-hydroxy-5-methyl-N-(oxolan-2-ylmethyl)pyrazolo-[1,5-a] pyrimidine-3-carboxamide], the pKi is 6.00 to 7.00.

On to `Cc1nc2ccnn2c(O)c1Cc1ccc(C(F)(F)F)cc1` [Example 2, 5-Methyl-6-{[4-(trifluoromethyl)phenyl]methyl}pyrazolo[1,5-a]pyrimidin-7-ol], for which the pKi was 6.00 to 7.00.

Turning to `Oc1c(Cc2cccc(F)c2)c(-c2cnccn2)nc2cncn12` [Example 3, 3-[(3-Fluorophenyl)methyl]-2-(pyrazin-2-yl)imidazo[1,5-a]pyrimidin-4-ol], the pKi was 6.00 to 7.00.

For the compound `CCc1nc2ccnn2c(O)c1Cc1cc(F)cc(C(F)(F)F)c1` [Example 4, 5-Ethyl-6-{[3-fluoro-5-(trifluoromethyl)phenyl]methyl}pyrazolo[1,5-a]pyrimidin-7-ol], the pKi was over 8.00.

Take `Cc1nc2ccnn2c(O)c1Oc1cccc(F)c1` [Example 5, 6-(3-Fluorophenoxy)-5-methylpyrazolo[1,5-a]pyrimidin-7-ol]: the pKi was 7.00 to 8.00.

As to `COC(=O)c1nc2ccnn2c(O)c1Cc1ccc(Cl)cc1` [Example 6, Methyl 6-[(4-chlorophenyl)methyl]-7-hydroxypyrazolo[1,5-a]pyrimidine-5-carboxylate], the pKi is 7.00 to 8.00.

As for `Cc1nc2ccnn2c(O)c1Cc1cccc(F)c1F` [Example 7, 6-[(2,3-Difluorophenyl)methyl]-5-methyl-pyrazolo[1,5-a]pyrimidine-7-ol], the pKi was 6.00 to 7.00.

Turning to `Cc1nc2ccnn2c(O)c1Cc1ccc(F)c(C#N)c1` [Example 8, 2-Fluoro-5-({7-hydroxy-5-methylpyrazolo-(1,5-a]pyrimidin-6-yl}methyl)benzonitrile], the pKi is 6.00 to 7.00.

On to `Cc1nc2ccnn2c(O)c1Cc1ccc(Cl)c(Br)c1` [Example 9, 6-[(3-Bromo-4-chlorophenyl)methyl]-5-methylpyrazolo[1,5-a]pyrimidin-7-ol], for which the pKi was 7.00 to 8.00.

Take `COc1cccc(Cc2c(C)nc3ccnn3c2O)c1` [Example 10, 6-[(3-Methoxyphenyl)methyl]-5-methyl-pyrazolo[1,5-a]pyrimidin-7-ol]: the pKi is 6.00 to 7.00.

As for `Cc1nc2ccnn2c(O)c1C(C)c1ccc(Cl)cc1` (stereo not shown) [Example 11, 6-[1-(4-Chlorophenyl)ethyl]-5-methyl-pyrazolo[1,5-a]pyrimidin-7-ol], the pKi was 6.00 to 7.00.

Turning to `CCc1nc2ccnn2c(O)c1Cc1cc(F)cc(F)c1` [Example 12, 6-[(3,5-difluorophenyl)methyl]-5-ethyl-pyrazolo[1,5-a]pyrimidin-7-ol], the pKi was over 8.00.

On to `CCc1nc2ccnn2c(O)c1Cc1cc(F)c(F)c(F)c1` [Example 13, 5-Ethyl-6-[(3,4,5-trifluorophenyl)-methyl]pyrazolo[1,5-a]pyrimidin-7-ol], for which the pKi is over 8.00.

Consider `CCc1nc2ccnn2c(O)c1Cc1ccc(F)c(Cl)c1` [Example 14, 6-[(3-Chloro-4-fluorophenyl)methyl]-5-ethylpyrazolo[1,5-a]pyrimidin-7-ol], for which the pKi is over 8.00.

On to `CCc1nc2ccnn2c(O)c1Cc1ccc(Cl)c(Cl)c1` [Example 15, 6-[(3,4-Dichlorophenyl)methyl]-5-ethylpyrazolo[1,5-a]pyrimidin-7-ol], for which the pKi is over 8.00.

On to `CCCc1nc2ccnn2c(O)c1Cc1ccc(Cl)c(Cl)c1` [Example 17, 6-[(3,4-Dichlorophenyl)methyl]-5-propyl-pyrazolo[1,5-a]pyrimidin-7-ol], for which the pKi is over 8.00.

As for `Oc1c(Cc2ccccc2)c(C2CC2)nc2ccnn12` [Example 18, 6-Benzyl-5-cyclopropylpyrazolo[1,5-a]-pyrimidin-7-ol], the pKi is over 8.00.

As for `Oc1c(Cc2ccc(OC(F)(F)F)cc2)c(C2CC2)nc2ccnn12` [Example 19, 5-Cyclopropyl-6-{[4-(trifluoromethoxy)-phenyl]methyl}pyrazolo[1,5-a]pyrimidin-7-ol], the pKi was 7.00 to 8.00.

Take `Oc1c(Cc2cccc(OC(F)(F)F)c2)c(C2CC2)nc2ccnn12` [Example 20, 5-Cyclopropyl-6-{[3-(trifluoromethoxy)-phenyl]methyl}pyrazolo[1,5-a]pyrimidin-7-ol]: the pKi was 7.00 to 8.00.

Consider `Oc1c(Cc2ccc(C(F)(F)F)cc2)c(C2CC2)nc2ccnn12` [Example 23], for which the pKi was over 8.00.

As to `Oc1c(Cc2ccc(F)c(F)c2)c(C2CC2)nc2ccnn12` [Example 24, 5-Cyclopropyl-6-[(3,4-difluorophenyl)-methyl]pyrazolo[1,5-a]pyrimidin-7-ol], the pKi is over 8.00.

Regarding `Oc1c(Cc2cc(F)cc(F)c2)c(C2CC2)nc2ccnn12` [Example 25, 5-Cyclopropyl-6-[(3,5-difluorophenyl)-methyl]pyrazolo[1,5-a]pyrimidin-7-ol], the pKi is over 8.00.

Regarding `Oc1c(Cc2cc(F)c(F)c(F)c2)c(C2CC2)nc2ccnn12` [Example 26, 5-Cyclopropyl-6-[(3,4,5-trifluorophenyl)-methyl]pyrazolo[1,5-a]pyrimidin-7-ol], the pKi is over 8.00.

Consider `Oc1c(Cc2ccc(Cl)c(F)c2)c(C2CC2)nc2ccnn12` [Example 27, 6-[(4-Chloro-3-fluorophenyl)methyl]-5-cyclopropylpyrazolo[1,5-a]pyrimidin-7-ol], for which the pKi was over 8.00.

For `Oc1c(Cc2ccc(F)c(Cl)c2)c(C2CC2)nc2ccnn12` [Example 28, 6-[(3-Chloro-4-fluorophenyl)methyl]-5-cyclopropylpyrazolo[1,5-a]pyrimidin-7-ol], the pKi was over 8.00.

Turning to `Oc1c(Cc2cc(F)cc(Cl)c2)c(C2CC2)nc2ccnn12` [Example 29, 6-[(3-Chloro-5-fluorophenyl)methyl]-5-cyclopropylpyrazolo[1,5-a]pyrimidin-7-ol], the pKi was over 8.00.

As for `Oc1c(Cc2ccc(Cl)c(Cl)c2)c(C2CC2)nc2ccnn12` [Example 30, 5-Cyclopropyl-6-[(3,4-dichlorophenyl)-methyl]pyrazolo[1,5-a]pyrimidin-7-ol], the pKi is over 8.00.

As for `Oc1c(Cc2ccc(F)c(C(F)(F)F)c2)c(C2CC2)nc2ccnn12` [Example 31, 5-Cyclopropyl-6-{[4-fluoro-3-(trifluoro-methyl)phenyl]methyl}pyrazolo[1,5-a]-pyrimidin-7-ol], the pKi was over 8.00.

Take `Oc1c(Cc2ccc(C(F)(F)F)c(F)c2)c(C2CC2)nc2ccnn12` [Example 32, 5-Cyclopropyl-6-{[3-fluoro-4-(trifluoromethyl)phenyl]methyl}pyrazolo[1,5-a]pyrimidin-7-ol]: the pKi is over 8.00.

On to `Oc1c(Cc2cc(Cl)cc(Cl)c2)c(C2CC2)nc2ccnn12` [Example 34, 5-Cyclopropyl-6-[(3,5-dichlorophenyl)-methyl]pyrazolo[1,5-a]pyrimidin-7-ol], for which the pKi was over 8.00.

Consider `CC(C)c1nc2ccnn2c(O)c1Cc1ccc(F)c(F)c1` [Example 35, 6-[(3,4-Difluorophenyl)methyl]-5-(propan-2-yl)pyrazolo[1,5-a]pyrimidin-7-ol], for which the pKi is over 8.00.

`CC(C)c1nc2ccnn2c(O)c1Cc1cc(F)c(F)c(F)c1` [Example 36, 5-(Propan-2-yl)-6-[(3,4,5-trifluorophenyl)-methyl]pyrazolo[1,5-a]pyrimidin-7-ol]: the pKi was over 8.00.

For the compound `CC(C)c1nc2ccnn2c(O)c1Cc1ccc(Cl)c(F)c1` [Example 38, 6-[(4-Chloro-3-fluorophenyl)methyl]-5-(propan-2-yl)pyrazolo[1,5-a]pyrimidin-7-ol], the pKi was over 8.00.

As for `CC(C)c1nc2ccnn2c(O)c1Cc1cc(F)cc(Cl)c1` [Example 39, 6-[(3-Chloro-5-fluorophenyl)methyl]-5-(propan-2-yl)pyrazolo[1,5-a]pyrimidin-7-ol], the pKi was over 8.00.
